# Patent US20210322545A1 (priority 2016, published 2021)
# Conditions: mouse, in vivo
compound,measurement,value
CN[C@@H](C)C(=O)N[C@H](C(=O)N1CCC[C@H]1c1nc(C(=O)c2ccc(F)cc2)cs1)C1CCCCC1 [LCL161],body weight in combination treatment cohort,fully recovered following the last treatment
